This is an account of results in the METLIN SMRT retention time set (Domingo-Almenara et al. 2019).

The nature of the series: gradient 5% acetonitrile 3 min, to 50% in 2 min, to 85% in 15 min, held 3 min, 100 µL/min. Particulars: column: Zorbax Extend-C18 2.1 x 50 mm; eluents: water / acetonitrile, 0.1% formic acid. A digest of the protocol:
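Data were gathered over 3 months by HPLC coupled to a quadrupole time-of-flight mass spectrometer, operated in positive and negative ionization mode. Mixtures of ~100 pure standards ran on a Zorbax Extend-C18 column (2.1 × 50 mm, 1.8 μm) at 100 μL/min, with water and acetonitrile each containing 0.1% formic acid and dead and dwell volumes of 40 μL and 900 μL. Retention time was read from adduct peaks picked by computer and checked manually.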
With `COc1ccc2cccc(NC(=O)c3c[nH]c4ccccc34)c2n1`, the RP-LC retention time was found to be 986 s.

`CSc1ccc(-c2noc(Cc3nnc(-c4cccc(Br)c4)o3)n2)cc1` registered an RP-LC retention time of 1170 s.

In turn, `Cc1oc(C2CCN(S(=O)(=O)Cc3ccccc3)CC2)nc1C(=O)N1CCCC1` registered an RP-LC retention time of 861 s.

Molecule `CC1CCc2c(C(=O)NCCc3ccccc3)csc2C1` (stereo not given) displayed an RP-LC retention time of 1080 s.

`CCN1CCCn2cc(S(=O)(=O)Nc3cc(Cl)ccc3OC)cc2C1=O` came in with an RP-LC retention time of 794 s.

Molecule `COCC(=O)N(CC(=O)N1CCc2sccc2C1COc1ccccc1OC)C(C)C` (stereo not given) yielded an RP-LC retention time of 795 s.

`Cc1nc(Nc2ccccc2)sc1C(=O)Nc1cccc(F)c1` showed an RP-LC retention time of 998 s.

In turn, `Cc1cccn2c(=O)nc(SCC(=O)NCc3ccco3)nc12` registered an RP-LC retention time of 610 s.

With `COc1ccccc1C1(CNC(=O)Cc2cn(C)c3ccccc23)CCOCC1`, the RP-LC retention time was 815 s.

Regarding `CCOC(=O)c1[nH]c(C)c(CN(CC2CCCO2)C(=O)c2ccc(Cl)cc2)c1C` (stereo not given), the RP-LC retention time was 1000 s.

The molecule `COc1ccc(CNCCSc2nnnn2C)c(OC)c1` yielded an RP-LC retention time of 598 s.

Turning to `Cc1cnc(C2CC2)n1CCNS(=O)(=O)Cc1ccccc1F`, the RP-LC retention time turned out to be 619 s.

`COc1ccc(CN2C=C(C(=O)OCc3noc(C4CCCCC4)n3)C(C)=NS2(=O)=O)cc1` returned an RP-LC retention time of 1150 s.

Molecule `O=C([C@@H]1C[C@H](F)CN1C(=O)c1cccc(F)c1)N1CCOCC1` yielded an RP-LC retention time of 614 s.

In turn, `O=S(=O)(c1ccccc1)N1CCC(c2nc(CCOCC3CC3)no2)C1` (stereo not given) displayed an RP-LC retention time of 896 s.

`Clc1ccc(-c2noc(CN3CCN(c4ccccn4)CC3)n2)cc1`: the RP-LC retention time worked out at 679 s.

For the molecule `O=C1c2ccccc2S(=O)(=O)N1CC(O)COc1ccc(Cl)cc1Cl` (stereo not given), the RP-LC retention time is 900 s.

In turn, `Cc1cc(C)c2nc(C)cc(C(=O)N3CCN(c4ccccn4)CC3)c2c1` had an RP-LC retention time of 593 s.

`CCOC(=O)N1CCN(C(=O)CCc2cc3cc(OC)ccc3[nH]c2=O)CC1` returned an RP-LC retention time of 662 s.

Molecule `Cn1nc(COc2ccccc2)c2c1CCN(C(=O)Nc1ccccc1Cl)C2` yielded an RP-LC retention time of 889 s.

The molecule `COc1ccc2[nH]cc(CCNC(=O)c3ccccc3F)c2c1` displayed an RP-LC retention time of 789 s.

In the case of `CC(C)=C1C(=O)Nc2ccc(S(=O)(=O)N3CCN(c4ccccn4)CC3)cc21`, the RP-LC retention time was 612 s.

In the case of `CCOc1ccccc1CNC(=O)C1CCN(c2nccnc2Sc2cccc(C)c2)CC1`, the RP-LC retention time turned out to be 1170 s.

The molecule `Cc1ccc(S(=O)(=O)Nc2n[nH]nc2C(N)=O)cc1` gave an RP-LC retention time of 603 s.

Take `CCOC(=O)c1c(S(=O)(=O)N2CCC(C(=O)Nc3cc(C)cc(C)c3)CC2)c(C)n(CC)c1C`: the RP-LC retention time turned out to be 980 s.

Molecule `COc1ccc(CCC(=O)N2CCCC2c2cc(C)on2)cc1` (stereo not given) showed an RP-LC retention time of 775 s.

`COc1ccc(CNC(=O)N2CCC(c3noc(-c4cnccn4)n3)C2)cc1` (stereo not given) gave an RP-LC retention time of 652 s.

Molecule `C=CCNC(=O)C1CCCN(C(=O)Nc2ccc(NC(=O)Nc3ccc(C)cc3C)cc2)C1` (stereo not given) yielded an RP-LC retention time of 760 s.

`COc1cc2c(C(=O)Oc3cccnc3)cn(-c3ccccc3)c(=O)c2cc1OC` returned an RP-LC retention time of 836 s.

`Cc1cc(N2CCN(c3ccccn3)CC2)n2nc(C(F)(F)F)c(-c3ccc(F)cc3)c2n1` displayed an RP-LC retention time of 870 s.

For `COC1CCOC2(CCN(C(=O)Nc3ccc4c(c3)OCCO4)CC2)C1` (stereo not given), the RP-LC retention time came out at 690 s.

`CCn1c(=O)c2ccccc2n(Cc2nc(-c3ccc(OC)cc3)no2)c1=O` had an RP-LC retention time of 993 s.

Molecule `COc1cccc(S(=O)(=O)N2CCCN(C3CCN(Cc4ccccc4)C3=O)CC2)c1` (stereo not given) gave an RP-LC retention time of 671 s.

The molecule `Cc1ccc(NC(=O)N2CCC(CCNC(=O)C3(c4ccccc4)CC3)CC2)cc1` registered an RP-LC retention time of 923 s.

Molecule `Cc1cc(N2CCCC2)n2ncnc2n1` came in with an RP-LC retention time of 567 s.

Regarding `O=C(c1csc(-c2ccc(N3CCCCC3)nc2)n1)N1CCN(c2ccccn2)CC1`, the RP-LC retention time is 600 s.

Molecule `CC(C)c1ccc(S(=O)(=O)c2cnc(N3CCC4(CC3)OCCO4)nc2N)cc1` returned an RP-LC retention time of 1020 s.

In the case of `Cc1cc2c(c(=O)n(-c3ccccc3)c(=O)n2CC(=O)Nc2ccc(Cl)cc2F)n1C`, the RP-LC retention time came out at 873 s.

For the molecule `O=C(Cn1cnc2ccccc2c1=O)NC1CCCC1`, the RP-LC retention time was 672 s.

`COC(=O)c1cc(OC)c(OC)cc1NC(=O)C1Oc2ccccc2OC1C` (stereo not given) gave an RP-LC retention time of 1040 s.

Molecule `COc1ccccc1-c1nc2nccc(-c3cc(OC)c(OC)c(OC)c3)n2n1` showed an RP-LC retention time of 824 s.

Turning to `O=C(Nc1cccc(OCc2nnc(-c3ccccc3)o2)c1)C1CCCC1`, the RP-LC retention time came out at 943 s.

As for `Cc1cccc(N2CCN(C(=O)c3cn4cc(C)ccc4n3)CC2)c1`, the RP-LC retention time was found to be 702 s.

The molecule `O=C(c1cnccn1)N1CCCn2nc(-c3cccc(Cl)c3)cc2C1` gave an RP-LC retention time of 767 s.

`Cc1ccc(C)c(N2CCN(C(=O)CN(C)S(=O)(=O)c3ccc4c(c3)CCCC(=O)N4)CC2)c1` had an RP-LC retention time of 908 s.

`CCC(C)NC(=O)c1c2c(cn(-c3ccc(C)cc3)c1=O)C(=O)CC(C)(C)C2` (stereo not given) returned an RP-LC retention time of 1000 s.

The molecule `CCOc1ccc(NC(=O)Cn2cnc3cc4c(cc32)OCCO4)cc1` registered an RP-LC retention time of 661 s.

As for `COc1ccc(OC)c(NC(=O)Cn2cccc(-c3nc(-c4ccc(OC)c(OC)c4)no3)c2=O)c1`, the RP-LC retention time worked out at 810 s.

In turn, `CCn1c(=O)sc2cc(S(=O)(=O)N3CCC(C(=O)Nc4ccc(C(C)C)cc4)CC3)ccc21` registered an RP-LC retention time of 985 s.

On to `CCc1ccc2[nH]c3c(c(=O)c2c1)CN(CC(=O)Nc1cc(OC)cc(OC)c1)CC3`, for which the RP-LC retention time came out at 642 s.

In turn, `Cc1oc(-c2[nH]ncc2C(=O)N(C)C)cc1S(=O)(=O)Nc1ccc(Cl)cc1` registered an RP-LC retention time of 703 s.

Molecule `Cc1noc(C)c1S(=O)(=O)NCCc1noc(-c2ccccc2)n1` came in with an RP-LC retention time of 848 s.

`Cc1ccc(S(=O)(=O)N2CC(=O)N(c3ccccc3F)C(C)(C(=O)NCCC(C)C)C2)cc1` (stereo not given): the RP-LC retention time was found to be 1020 s.

In turn, `COc1ccc(CNC(=O)c2cn3cccc(C)c3n2)cc1OC` returned an RP-LC retention time of 604 s.

On to `O=C(C1=NN(Cc2ccccc2F)c2cc(Cl)ccc2S1(=O)=O)N1CCOCC1`, for which the RP-LC retention time turned out to be 833 s.

`Cc1cccc(-c2nnc(-c3nc(NCc4ccco4)c4ccccc4n3)o2)c1` displayed an RP-LC retention time of 1010 s.

`Cc1ccc(-c2nc3ccccc3[nH]2)cc1NC(=O)c1ccco1` displayed an RP-LC retention time of 625 s.

Regarding `O=C(c1c[nH]c2ccccc12)N1CCN(c2cc(-c3ccc(Cl)cc3)[nH]n2)CC1`, the RP-LC retention time was 811 s.

Molecule `O=C(Cc1cccs1)Nc1ccc(OCc2nnc(-c3ccccc3)o2)cc1` had an RP-LC retention time of 879 s.

In turn, `COc1ccc(C2CNC(=O)C2)cc1OC1CCCC1` (stereo not given) came in with an RP-LC retention time of 794 s.

As for `COC(=O)c1cccc(C(=O)Nc2cc(C)cc(C)c2)n1`, the RP-LC retention time came to 931 s.

`COc1ccc2[nH]cc(C3=CCNCC3)c2c1` displayed an RP-LC retention time of 648 s.

The molecule `O=C(CN1CCN(c2ccc(F)c(F)c2)C1=O)NC1CCS(=O)(=O)C1` (stereo not given) had an RP-LC retention time of 636 s.

For `CCOC(=O)c1c(S(=O)(=O)N2CCC(C(=O)Nc3nc(C)cs3)CC2)c(C)n(C)c1C`, the RP-LC retention time worked out at 780 s.

`COc1ccccc1N1CCN(c2nnc(SC(C)C)s2)CC1` displayed an RP-LC retention time of 952 s.

On to `COc1ccc(C2(C(=O)N3CCC4(CC3)NCCc3c4[nH]c4ccccc34)CC2)cc1`, for which the RP-LC retention time was 681 s.

Molecule `O=C(Cn1nc(N2CCSCC2)c2ccccc2c1=O)Nc1cccc(C(F)(F)F)c1` registered an RP-LC retention time of 1030 s.

Turning to `O=C(CCn1c(N2CCCCC2)nc2ccsc2c1=O)N1CCN(c2ccccn2)CC1`, the RP-LC retention time turned out to be 629 s.

As to `Cn1c(=O)c2nc(SCCC(=O)NCc3cc(F)cc(F)c3)n(C)c2n(C)c1=O`, the RP-LC retention time was found to be 733 s.

In turn, `Nc1ccc(S(=O)(=O)N2CCCCC2c2cccnc2)cc1` (stereo not given) came in with an RP-LC retention time of 555 s.

As to `Cc1ccn2cc(C(=O)N3CCN(C4CCCCC4)CC3)nc2c1`, the RP-LC retention time was found to be 566 s.

`CN1C(=O)c2[nH]nc(-c3ccc(F)cc3)c2C1c1cccc(O)c1` (stereo not given) showed an RP-LC retention time of 687 s.

Molecule `COc1ccc(-c2csc(NC(=O)Cc3csc(C)n3)n2)cc1` had an RP-LC retention time of 828 s.

`O=C(CN1c2ccc(F)cc2-c2ccccc2S1(=O)=O)NCCCN1CCOCC1`: the RP-LC retention time worked out at 625 s.

The molecule `CC(=O)Nc1cc(C(=O)NC2CCCC2)c2ccc(C)nc2c1` had an RP-LC retention time of 600 s.

In the case of `COc1ccc2nc(C(=O)N3CCN(c4ccc(Cl)cc4)CC3)cn2n1`, the RP-LC retention time was determined as 900 s.

Molecule `CCn1cc(C)c(C(=O)O)c1CC(=O)N1CCC(N2CCCCC2)CC1` returned an RP-LC retention time of 587 s.

Molecule `CCOC(=O)Cn1cc(-c2nc(-c3ccc(Br)cc3)no2)ccc1=O` displayed an RP-LC retention time of 1050 s.

In turn, `COc1cccc(Nc2c(-c3ccc(SC)cc3)nc3cnccn23)c1` showed an RP-LC retention time of 912 s.

`COc1ccc(N2C=C(C(=O)N3CCOCC3)S(=O)(=O)c3ccc(F)cc32)cc1Cl` displayed an RP-LC retention time of 762 s.
